Where “and” joins values, the source holds several entries; their conditions need not be identical. Equal values may be shown once.
What was measured:
[1] = test system: DU-145 prostate cancer cells; assay: DU-145 cell growth assay (Coulter cell counting); type: cell-based; conditions: DU-145, 12 days; for Total viable cells/well: single well
Protocol: Culture of stock cells. DU-145 prostate cancer cells were purchased from American Type Culture Collection (Manassas, Va., USA). Stock cells were grown in Dulbecco's Modified Eagle Medium (DMEM) (Gibco BRL, Grand Island N.Y.) supplemented with 5% FBS (Fetal Bovine Serum, Gibco BRL, Grand Island N.Y.) in a humidified atmosphere of 5% CO2 in air at 37° C. Cells were subcultured every 1-2 times a week.
Cell growth assay. Cells were trypsinized from the stock plates by treatment with trypsin/versene, added to an equal volume of phenol red-free RPMI-1640 (Gibco BRL, Grand Island N.Y.) supplemented with 5% dextran-charcoal treated fetal calf serum (DCFCS). Cells were resuspended to a cell count of 0.1×10^5 cells/ml with the use of a haemocytometer and plated in monolayer in 0.5 ml aliquots into 24-well plastic culture dishes (Costar, Corning USA). After 24 hours, cells were treated with appropriate concentrations (see table) of γ-tocopheryl phosphate mixture (γ-TP) (Vital Health) and Lycopene (Sigma) or combinations of Lycopene and γ-TP diluted in phenol red-free RPMI medium 1640 supplemented with 5% DCFCS. The culture medium was changed every 3-4 days. The combination treatment contained lycopene and γ-TP in a 1:1 ratio by molecular weight/mass with lycopene varying from 5 ug/ml-40 ug/ml.
Cell counting. The cells were washed twice with 0.9% NaCl to remove non-adherent dead cells and were then lysed in 0.5 ml 2.5 mM Hepes buffer/[…] MgCl2 plus two drops of zapoglobin II lytic reagent (Beckman Coulter, Coulter Corp USA) for 5-15 minutes. The nuclei released were suspended in isoton III (Beckman Coulter, Coulter Corp, USA) and counted on a Coulter counter with particle size set at >5 μm. All cell counts were carried out in triplicate on triplicate well contents. The results were calculated as the average ±standard error. P-values were determined using Independent samples T-Test (by standard software packages SPSS).

[2] = test system: MCF-7 breast cancer cells; assay: MCF-7 breast cancer cell line proliferation assay (MTS); type: cell-based, human; conditions: MCF-7, 72 hours, no E, concentration 1
[3] = test system: MCF-7 breast cancer cells; assay: as above; type: cell-based, human; conditions: for activity on MCF-7 proliferation (MTS; quantity not given): MCF-7, 72 hours, no E
Protocol: MCF-7 breast cancer cell growth conditions: Cells were grown in 75 cm^2 plastic tissue cell flasks as monolayer in Dulbecco's Modified Eagle Medium (DMEM), supplemented with 10% FBS in a humidified atmosphere of 5% CO2 in 95% air at 37° C. Cells were sub-cultured at bi-weekly intervals by suspension with 0.06% trypsin/0.02% EDTA (pH 7.3).
MCF-7 breast cancer cell line proliferation assays (MITS Assays): Cells were trypsinised (as performed during sub-culturing) in DMEM, supplemented with 10% FBS. Cells were re-suspended to a cell count of 10,000 cells/ml, with the use of a haemocytometer. Cells were seeded at 1,000 cells/well or by the addition of 100 μl of the cell suspension into 96-well cell culture plates. The cells were left overnight and then were synchronised (by serum starving for 24 hours), prior to the start of experiments.
After the cells were synchronised the cells were treated with the appropriate concentrations of the treatments, prepared in 100% ethanol (2, 5, 10, 15, 20, 30 & 50 μg/ml), they were added to RPMI medium 1640 supplemented with 10% dextran-charcoal treated FCS (DCFBS). […] After 72 hours the plates are incubated with MTS reagent (as described in Example 1) for 1 hr. The plate was read in a spectrophotometer at 490 nm. There were 8 replicates for each compound tested (at the various concentrations shown below).
Treatment abbreviations: GT=gamma-tocopherol; GTP=gamma-tocopheryl phosphate; GT2P=gamma-di-tocopheryl phosphate, GTPM=gamma-tocopheryl phosphate mixture (combination of GTP and GT2P).

CC(C)=CCC/C(C)=C/C=C/C(C)=C/C=C/C(C)=C/C=C/C=C(C)/C=C/C=C(C)/C=C/C=C(\C)CCC=C(C)C [lycopene]
Average total viable cells/well ([1]; Lycopene 5 ug/ml): 4.367 ×10^5 cells/well
Total viable cells/well ([1]; Lycopene 5 ug/ml): 4.392 ×10^5 cells/well and 4.383 ×10^5 cells/well and 4.325 ×10^5 cells/well
Average total viable cells/well ([1]; Lycopene 10 ug/ml): 3.712 ×10^5 cells/well
Total viable cells/well ([1]; Lycopene 10 ug/ml): 3.555 ×10^5 cells/well and 3.869 ×10^5 cells/well
Average total viable cells/well ([1]; Lycopene 15 ug/ml): 3.716 ×10^5 cells/well
Total viable cells/well ([1]; Lycopene 15 ug/ml): 3.704 ×10^5 cells/well and 3.727 ×10^5 cells/well
Average total viable cells/well ([1]; Lycopene 20 ug/ml): 0.276 ×10^5 cells/well
Average total viable cells/well ([1]; Lycopene 25 ug/ml): 1.478 ×10^5 cells/well
Total viable cells/well ([1]; Lycopene 25 ug/ml): 1.759 ×10^5 cells/well and 1.196 ×10^5 cells/well
Average total viable cells/well ([1]; Lycopene 30 ug/ml): 0.120 ×10^5 cells/well

Cc1c(O)cc2c(c1C)O[C@](C)(CCC[C@H](C)CCC[C@H](C)CCCC(C)C)CC2 [GT, gamma-tocopherol]
activity on MCF-7 proliferation (MTS; quantity not given) [2]: −6.104
relative potency as anti-cancer treatment ([3]; MCF-7): least potent with limited activity
activity on MCF-7 proliferation (MTS; quantity not given) ([3]; concentration 2 μg/ml): 15.685
activity on MCF-7 proliferation (MTS; quantity not given) ([3]; concentration 5 μg/ml): 36.36
activity on MCF-7 proliferation (MTS; quantity not given) ([3]; concentration 10 μg/ml): 68.689
activity on MCF-7 proliferation (MTS; quantity not given) ([3]; concentration 15 μg/ml): 56.82
activity on MCF-7 proliferation (MTS; quantity not given) ([3]; concentration 20 μg/ml): 79.766
activity on MCF-7 proliferation (MTS; quantity not given) ([3]; concentration 30 μg/ml): 82.743
activity on MCF-7 proliferation (MTS; quantity not given) ([3]; concentration 50 μg/ml): 62.622

Cc1c(OP(=O)(O)Oc2cc3c(c(C)c2C)O[C@](C)(CCC[C@H](C)CCC[C@H](C)CCCC(C)C)CC3)cc2c(c1C)O[C@](C)(CCC[C@H](C)CCC[C@H](C)CCCC(C)C)CC2 [GT2P, gamma-di-tocopheryl phosphate]
activity on MCF-7 proliferation (MTS; quantity not given) [2]: 7.283
activity on MCF-7 proliferation (MTS; quantity not given) ([3]; concentration 2 μg/ml): 4.91
activity on MCF-7 proliferation (MTS; quantity not given) ([3]; concentration 5 μg/ml): 31.07
activity on MCF-7 proliferation (MTS; quantity not given) ([3]; concentration 10 μg/ml): 39.471
activity on MCF-7 proliferation (MTS; quantity not given) ([3]; concentration 15 μg/ml): 53.126
activity on MCF-7 proliferation (MTS; quantity not given) ([3]; concentration 20 μg/ml): 64.557
activity on MCF-7 proliferation (MTS; quantity not given) ([3]; concentration 30 μg/ml): 98.43
activity on MCF-7 proliferation (MTS; quantity not given) ([3]; concentration 50 μg/ml): 126.506

Cc1c(OP(=O)(O)O)cc2c(c1C)O[C@](C)(CCC[C@H](C)CCC[C@H](C)CCCC(C)C)CC2 [GTP, gamma-tocopheryl phosphate]
activity on MCF-7 proliferation (MTS; quantity not given) [2]: 7.32
activity on MCF-7 proliferation (MTS; quantity not given) ([3]; concentration 2 μg/ml): 5.624
activity on MCF-7 proliferation (MTS; quantity not given) ([3]; concentration 5 μg/ml): 4.807
activity on MCF-7 proliferation (MTS; quantity not given) ([3]; concentration 10 μg/ml): 25.102
activity on MCF-7 proliferation (MTS; quantity not given) ([3]; concentration 15 μg/ml): 43.512
activity on MCF-7 proliferation (MTS; quantity not given) ([3]; concentration 20 μg/ml): 64.719
activity on MCF-7 proliferation (MTS; quantity not given) ([3]; concentration 30 μg/ml): 81.81
activity on MCF-7 proliferation (MTS; quantity not given) ([3]; concentration 50 μg/ml): 109.928
